Here are results for 17 molecules from ChEMBL document CHEMBL5325449, “Influence of N-arylsulfonamido d-valine N-substituents on the selectivity and potency of matrix metalloproteinase inhibitors” (Bioorg Med Chem, 2023).

Experiment [1] deals with 72 kDa type IV collagenase (Homo sapiens, UniProt P08253). Nature of the experiment: Inhibition of human recombinant MMP-2 (34 to 660 residues) expressed in CHO cells using (7-methoxycoumarin-4-y1)-acetyl-Pro-Leu-Gly-Leu-[3-(2,4-dinitropheny1)-L-2,3-diaminopropionyl]-Ala-Arg-NH2 as substrate preincubated with enzyme for 30 mins followed by substrate addition and measured after 10 mins by fluorescence based analysis. The format is cell-based.

For experiment [2], the target named is Matrix metalloproteinase-9 (Homo sapiens, UniProt P14780, Q279R). Description: Inhibition of human recombinant MMP-9 (20 to 707 residues) Gln279Arg mutant expressed in CHO cells using (7-methoxycoumarin-4-y1)-acetyl-Pro-Leu-Gly-Leu-[3-(2,4-dinitropheny1)-L-2,3-diaminopropionyl]-Ala-Arg-NH2 as substrate preincubated with enzyme for 30 mins followed by substrate addition and measured after 10 mins by fluorescence based analysis. The format is cell-based.

A further experiment addresses Neutrophil collagenase (Homo sapiens, UniProt P22894). Nature of the experiment: Inhibition of human recombinant MMP-8 (21 to 467 residues) expressed in NS0 cells using (7-methoxycoumarin-4-y1)-acetyl-Pro-Leu-Gly-Leu-[3-(2,4-dinitropheny1)-L-2,3-diaminopropionyl]-Ala-Arg-NH2 as substrate preincubated with enzyme for 30 mins followed by substrate addition and measured after 10 mins by fluorescence based analysis. The class given is cell-based.

The target of another experiment is Collagenase 3 (Homo sapiens, UniProt P45452). Nature of the experiment: Inhibition of human recombinant MMP-13 (20 to 471 residues) expressed in NS0 cells using (7-methoxycoumarin-4-y1)-acetyl-Pro-Leu-Gly-Leu-[3-(2,4-dinitropheny1)-L-2,3-diaminopropionyl]-Ala-Arg-NH2 as substrate preincubated with enzyme for 30 mins followed by substrate addition and measured after 10 mins by fluorescence based analysis.

For experiment [3], the target named is Macrophage metalloelastase (Homo sapiens, UniProt P39900, V97L). Nature of the experiment: Inhibition of human recombinant MMP-12 (17 to 470 residues) Val97Leu mutant expressed in NS0 cells using (7-methoxycoumarin-4-y1)-acetyl-Pro-Leu-Gly-Leu-[3-(2,4-dinitropheny1)-L-2,3-diaminopropionyl]-Ala-Arg-NH2 as substrate preincubated with enzyme for 30 mins followed by substrate addition and measured after 10 mins by fluorescence based analysis. The format is cell-based.

The term IC50 denotes the concentration that inhibits the measured activity by half.

Chain of Macrophage metalloelastase (P39900 whole entry V97L, the tested form may be a part): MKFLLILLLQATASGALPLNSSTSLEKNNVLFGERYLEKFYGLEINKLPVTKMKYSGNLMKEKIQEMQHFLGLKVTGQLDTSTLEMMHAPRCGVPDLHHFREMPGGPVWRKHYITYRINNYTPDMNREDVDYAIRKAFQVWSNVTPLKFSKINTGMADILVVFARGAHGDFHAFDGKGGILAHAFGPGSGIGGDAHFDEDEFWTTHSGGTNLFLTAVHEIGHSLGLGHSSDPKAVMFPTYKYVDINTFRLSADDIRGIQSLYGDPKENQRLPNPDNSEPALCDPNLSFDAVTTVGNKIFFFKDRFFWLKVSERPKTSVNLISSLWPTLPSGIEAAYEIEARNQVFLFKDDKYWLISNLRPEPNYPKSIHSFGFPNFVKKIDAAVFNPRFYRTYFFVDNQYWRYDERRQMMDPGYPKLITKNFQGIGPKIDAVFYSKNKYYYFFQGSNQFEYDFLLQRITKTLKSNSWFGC
Chain of Neutrophil collagenase (P22894 whole entry, the tested form may be a part): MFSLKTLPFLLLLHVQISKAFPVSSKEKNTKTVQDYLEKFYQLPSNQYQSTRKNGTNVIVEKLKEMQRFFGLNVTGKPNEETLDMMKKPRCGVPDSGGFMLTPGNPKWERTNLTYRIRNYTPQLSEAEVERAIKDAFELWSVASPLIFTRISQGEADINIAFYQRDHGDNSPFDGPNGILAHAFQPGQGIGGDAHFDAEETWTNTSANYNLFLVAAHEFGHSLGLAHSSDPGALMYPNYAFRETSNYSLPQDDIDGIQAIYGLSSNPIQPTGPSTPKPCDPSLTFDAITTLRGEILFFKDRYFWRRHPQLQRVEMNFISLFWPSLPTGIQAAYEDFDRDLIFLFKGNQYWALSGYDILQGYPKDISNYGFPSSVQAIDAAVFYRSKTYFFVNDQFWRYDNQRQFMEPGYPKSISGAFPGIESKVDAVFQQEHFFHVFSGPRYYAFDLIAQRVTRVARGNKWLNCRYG
Chain of 72 kDa type IV collagenase (P08253 whole entry, the tested form may be a part): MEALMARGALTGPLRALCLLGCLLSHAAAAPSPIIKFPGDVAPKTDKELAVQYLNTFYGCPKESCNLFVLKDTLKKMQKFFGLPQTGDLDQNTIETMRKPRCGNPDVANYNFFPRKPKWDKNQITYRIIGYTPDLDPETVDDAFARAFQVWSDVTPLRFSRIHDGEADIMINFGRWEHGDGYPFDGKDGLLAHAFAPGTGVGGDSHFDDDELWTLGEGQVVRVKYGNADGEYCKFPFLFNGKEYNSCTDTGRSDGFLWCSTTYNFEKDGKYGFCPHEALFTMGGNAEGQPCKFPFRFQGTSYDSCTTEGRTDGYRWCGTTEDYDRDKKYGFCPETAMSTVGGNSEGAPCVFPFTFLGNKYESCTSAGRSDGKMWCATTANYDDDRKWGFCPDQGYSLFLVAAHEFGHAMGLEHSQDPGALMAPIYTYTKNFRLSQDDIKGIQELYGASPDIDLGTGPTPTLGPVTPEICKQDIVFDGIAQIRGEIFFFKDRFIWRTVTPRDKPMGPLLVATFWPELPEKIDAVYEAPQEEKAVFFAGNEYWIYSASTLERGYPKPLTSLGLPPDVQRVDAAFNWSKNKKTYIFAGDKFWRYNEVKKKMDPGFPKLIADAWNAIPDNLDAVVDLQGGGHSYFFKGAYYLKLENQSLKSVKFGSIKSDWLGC
Chain of Matrix metalloproteinase-9 (P14780 107-707 Q279R limits assumed): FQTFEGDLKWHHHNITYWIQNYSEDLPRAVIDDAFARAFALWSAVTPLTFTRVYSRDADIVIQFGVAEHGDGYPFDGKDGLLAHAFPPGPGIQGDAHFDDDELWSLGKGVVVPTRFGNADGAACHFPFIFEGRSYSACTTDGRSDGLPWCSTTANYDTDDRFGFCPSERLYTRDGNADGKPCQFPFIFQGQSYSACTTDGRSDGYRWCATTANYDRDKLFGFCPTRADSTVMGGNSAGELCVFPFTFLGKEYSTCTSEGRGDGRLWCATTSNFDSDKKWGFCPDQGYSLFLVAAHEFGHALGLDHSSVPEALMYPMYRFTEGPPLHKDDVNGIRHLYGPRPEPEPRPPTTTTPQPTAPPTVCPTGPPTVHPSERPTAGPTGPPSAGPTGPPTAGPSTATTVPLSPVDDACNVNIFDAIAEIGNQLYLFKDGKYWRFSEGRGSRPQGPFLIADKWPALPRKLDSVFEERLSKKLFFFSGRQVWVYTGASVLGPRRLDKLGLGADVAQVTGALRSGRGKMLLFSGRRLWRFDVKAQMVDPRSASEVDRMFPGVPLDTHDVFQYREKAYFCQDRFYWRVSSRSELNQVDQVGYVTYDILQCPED

Take `Cc1ccc(-c2noc(-c3ccc(S(=O)(=O)N(CCCC(F)(F)F)[C@@H](C(=O)O)C(C)C)cc3)n2)s1`: the IC50 was 0.028 µM in experiment [1]; 0.154 µM in experiment [2]; 0.371 µM at Neutrophil collagenase; 0.391 µM at Collagenase 3; 0.164 µM in experiment [3].

As for `Cc1ccc(-c2noc(-c3ccc(S(=O)(=O)N[C@@H](C(=O)O)C(C)C)cc3)n2)s1`, the IC50 in experiment [1] worked out at 0.004 µM; in experiment [2], 0.013 µM; on Neutrophil collagenase it was 0.026 µM; at Collagenase 3, 0.057 µM; in experiment [3], 0.014 µM.

As for `CCCCCCCCN([C@@H](C(=O)O)C(C)C)S(=O)(=O)c1ccc(-c2nc(-c3ccc(C)s3)no2)cc1`, the IC50 in experiment [1] was 0.99 µM; in experiment [2] it was 4 µM; at Collagenase 3, > 10 µM; in experiment [3] it was 3.6 µM.

As to `CCCCN([C@@H](C(=O)O)C(C)C)S(=O)(=O)c1ccc(-c2nc(-c3ccc(C)s3)no2)cc1`, the 50% inhibitory concentration (IC50) came to 0.01 µM in experiment [1]; 0.087 µM in experiment [2]; 0.547 µM on Neutrophil collagenase; 0.212 µM at Collagenase 3; 0.105 µM in experiment [3].

In the case of `CCN([C@@H](C(=O)O)C(C)C)S(=O)(=O)c1ccc(-c2nc(-c3ccc(C)s3)no2)cc1`, the IC50 in experiment [1] was determined as 0.0007 µM; in experiment [2] it was 0.033 µM; at Neutrophil collagenase, 0.149 µM; on Collagenase 3, 0.252 µM; in experiment [3], 0.058 µM.

For `Cc1ccc(-c2noc(-c3ccc(S(=O)(=O)N(CCCCF)[C@@H](C(=O)O)C(C)C)cc3)n2)s1`, the IC50 in experiment [1] worked out at 0.003 µM; in experiment [2] it was 0.025 µM; on Neutrophil collagenase, 0.101 µM; on Collagenase 3, 0.096 µM; in experiment [3] it was 0.041 µM.

As for `Cc1ccc(-c2noc(-c3ccc(S(=O)(=O)N(C)[C@@H](C(=O)O)C(C)C)cc3)n2)s1`, the IC50 in experiment [1] is 0.005 µM; in experiment [2], 0.036 µM; on Neutrophil collagenase, 0.013 µM; on Collagenase 3, 0.37 µM; in experiment [3], 0.037 µM.

Regarding `CCCCCCCCCCCCCCCCN([C@@H](C(=O)O)C(C)C)S(=O)(=O)c1ccc(-c2nc(-c3ccc(C)s3)no2)cc1`, the IC50 (in experiment [1]; in experiment [2]; at Neutrophil collagenase; on Collagenase 3; in experiment [3]) was > 10 µM in each case.

As to `Cc1ccc(-c2noc(-c3ccc(S(=O)(=O)N(CCCCCCCCCCCCN=[N+]=[N-])[C@@H](C(=O)O)C(C)C)cc3)n2)s1`, the IC50 in experiment [1] was found to be 0.057 µM; in experiment [2], 0.933 µM; on Neutrophil collagenase, 0.923 µM; on Collagenase 3, 2 µM; in experiment [3], 4 µM.

Turning to `Cc1ccc(-c2noc(-c3ccc(S(=O)(=O)N(CCOCOCCCOCCN=[N+]=[N-])[C@@H](C(=O)O)C(C)C)cc3)n2)s1`, the IC50 in experiment [1] amounted to 0.008 µM; in experiment [2], 0.036 µM; at Neutrophil collagenase, 0.083 µM; on Collagenase 3, 0.093 µM; in experiment [3] it was 0.182 µM.

Consider `CC(C)[C@@H](NS(=O)(=O)c1ccc(-c2nc(-c3ccc(Cn4cc(CCCF)nn4)s3)no2)cc1)C(=O)O`, for which the IC50 in experiment [1] worked out at 0.016 µM; in experiment [2] it was 0.102 µM; on Neutrophil collagenase, 0.022 µM; at Collagenase 3, 0.012 µM; in experiment [3], 0.013 µM.

On to `Cc1ccc(-c2noc(-c3ccc(S(=O)(=O)N(CCF)[C@@H](C(=O)O)C(C)C)cc3)n2)s1`, for which the IC50 was determined as 0.00059 µM in experiment [1]; 0.034 µM in experiment [2]; 0.09 µM on Neutrophil collagenase; 0.458 µM on Collagenase 3; 0.036 µM in experiment [3].

For `Cc1ccc(-c2noc(-c3ccc(S(=O)(=O)N(Cc4ccccc4)[C@@H](C(=O)O)C(C)C)cc3)n2)s1`, the IC50 in experiment [1] came out at 0.005 µM; in experiment [2], 0.095 µM; on Neutrophil collagenase, 0.58 µM; on Collagenase 3 it was 0.987 µM; in experiment [3], 0.113 µM.

`CCCCCCN([C@@H](C(=O)O)C(C)C)S(=O)(=O)c1ccc(-c2nc(-c3ccc(C)s3)no2)cc1`: the IC50 was 0.08 µM in experiment [1]; 0.329 µM in experiment [2]; > 10 µM on Neutrophil collagenase; 0.333 µM on Collagenase 3; 0.527 µM in experiment [3].

Take `CC(C)[C@@H](NS(=O)(=O)c1ccc(-c2nc(-c3ccc(Cn4cc(CCCCCF)nn4)s3)no2)cc1)C(=O)O`: the IC50 in experiment [1] was 0.022 µM; in experiment [2] it was 1 µM; at Neutrophil collagenase, 0.089 µM; on Collagenase 3, 0.036 µM; in experiment [3], 0.029 µM.

Take `CCCN([C@@H](C(=O)O)C(C)C)S(=O)(=O)c1ccc(-c2nc(-c3ccc(C)s3)no2)cc1`: the concentration for half-maximal inhibition (IC50) stood at 0.005 µM in experiment [1]; 0.092 µM in experiment [2]; 0.19 µM on Neutrophil collagenase; 0.35 µM at Collagenase 3; 0.026 µM in experiment [3].

For `CCCCCN([C@@H](C(=O)O)C(C)C)S(=O)(=O)c1ccc(-c2nc(-c3ccc(C)s3)no2)cc1`, the half-maximal inhibitory concentration (IC50) in experiment [1] worked out at 0.032 µM; in experiment [2] it was 0.087 µM; at Neutrophil collagenase, 0.466 µM; on Collagenase 3, 0.104 µM; in experiment [3], 0.162 µM.
